Where a name gives a salt, the structure may show the parent alone. Read-outs that look alike come from different tables or passages of the source.
Legend:
[1] = target: T1, AT1 receptor of angiotensin II (Rattus norvegicus, UniProt P25095); experiment: Test on the AT1 receptor of angiotensin II (displacement of 125I angiotensin II, rat liver membranes); format: binding
T1 construct: A fresh membrane preparation obtained from rat's liver is used; from tissue; host or cells: rat liver membranes
T1 sequence (P25095 1-359): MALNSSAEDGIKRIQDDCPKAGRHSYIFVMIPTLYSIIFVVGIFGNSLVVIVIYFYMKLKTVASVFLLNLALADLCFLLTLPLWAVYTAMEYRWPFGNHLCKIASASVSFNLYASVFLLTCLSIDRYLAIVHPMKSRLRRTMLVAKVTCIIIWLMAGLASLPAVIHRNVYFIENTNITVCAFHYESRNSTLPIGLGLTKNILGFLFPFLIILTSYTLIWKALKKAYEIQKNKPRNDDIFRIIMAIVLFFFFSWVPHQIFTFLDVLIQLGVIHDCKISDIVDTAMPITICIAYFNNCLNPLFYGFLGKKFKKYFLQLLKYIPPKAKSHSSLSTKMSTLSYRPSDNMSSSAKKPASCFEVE
Protocol: 1 - Test on the AT1 -receptor of angiotensin II
A fresh membrane preparation obtained from rat's liver is used. The tissue is ground up in a polytron in a 50 mM Tris buffer pH 7.4, the grinding is followed by 3 centrifugations at 30,000 g for 15 minutes with intermediate take up of the pellets in the Tris buffer pH 7.4.
(§1) (The product is first tested with 3×10^-5 M three times). When the tested product displaces more than 50% of the radioactivity specifically bound to the receptor, it is tested again according to a range of 7 concentrations in order to determine the concentration which inhibits by 50% the radioactivity specifically bound to the receptor. In this way the 50% inhibitory concentration is determined).
(§2) After incubation at 25° C. for 150 minutes, placing in a water-bath at 0° C. for 5 minutes, filtration under vacuum, and rinsing with Tris buffer pH 7.4, the radioactivity is counted in the presence of a scintillating solid.

[2] = target: T2, AT2 receptor of angiotensin II (Oryctolagus cuniculus, UniProt G1T351); experiment: Test on the AT2 receptor of angiotensin II (displacement of 125I angiotensin II, rabbit uterus membranes); format: binding
T2 construct: A fresh membrane preparation obtained from rabbit's uterus is used; from tissue; host or cells: uterus membranes of estradiol-treated rabbits
T2 sequence (G1T351 1-363): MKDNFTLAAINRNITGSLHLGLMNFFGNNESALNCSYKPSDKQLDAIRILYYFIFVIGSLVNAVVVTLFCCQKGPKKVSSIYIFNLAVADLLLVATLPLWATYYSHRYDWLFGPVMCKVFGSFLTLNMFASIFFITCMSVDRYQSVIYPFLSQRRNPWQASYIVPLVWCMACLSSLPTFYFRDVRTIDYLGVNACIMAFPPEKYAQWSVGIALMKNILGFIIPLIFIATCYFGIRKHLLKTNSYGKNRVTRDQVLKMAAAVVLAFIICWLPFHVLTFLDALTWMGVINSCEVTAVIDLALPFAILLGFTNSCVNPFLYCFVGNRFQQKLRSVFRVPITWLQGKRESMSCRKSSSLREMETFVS
Protocol: 2) Test on the AT2 receptor of angiotensin II
The tissue is ground up in a polytron in a 50 mM Tris buffer pH 7.4, and the grinding is followed by 3 centrifugations at 30,000 g for 15 minutes, with intermediate take up of the pellets in the Tris buffer pH 7.4.
The homogenate obtained is preincubated for 20 minutes at 25° C. in the presence of 10 mM dithiothreitol, then brought back to 0°-4° C.
as §1, with “The” for “(The”, “at 3.10^-5” for “with 3×10^-5”, “times.” for “times).”, “determined.” for “determined).”
as §2

[3] = rat liver membrane, 125I angiotensin II, 25° C., 150 minutes, read-out: AT1 Receptor IC50
[4] = rabbit uterus membrane (estradiol pre-treated), 125I angiotensin II, 25° C., 150 minutes, read-out: AT2 Receptor IC50
[5] = products P1 to P13, expressed in nM, read-out: On AT1 receptor IC50
[6] = products P1 to P13, expressed in nM, read-out: On AT2 receptor IC50

| SMILES | IC50 [1, 3] [nM] | IC50 [2, 4] [nM] | IC50 [1, 5] [nM] | IC50 [2, 6] [nM] |
| --- | --- | --- | --- | --- |
| CCCCc1nc(SC)c(C(C)(O)C(=O)O)n1Cc1ccc(-c2ccccc2S(=O)(=O)NC(=O)NCCC)cc1 (stereo not drawn) [Example 9, 2-butyl alpha-hydroxy alpha-methyl 4-(methylthio) 1-[(2'-((((propylamino)carbonyl)amino)sulphonyl) (1,1'-biphenyl) 4-yl)methyl] 1H-imidazole 5-acetic acid] | 3.4 | 8.5 |  |  |
| CCCCc1nc(SC)c(C(C)(O)C(=O)O)n1Cc1ccc(-c2ccccc2S(=O)(=O)NC(=O)NCc2ccccc2)cc1 (stereo not drawn) [Example 11] | 24 | 1.6 |  |  |
| CCCCc1nc(SC)c(C(C)(O)C(=O)O)n1Cc1ccc(-c2ccccc2S(=O)(=O)NC(=O)NCC2CCCCC2)cc1 (stereo not drawn) [Example 13, 2-butyl 1-[(2'-(((((cyclohexylmethyl)amino)arbonyl)amino)sulphonyl) (1,1'-biphenyl) 4-yl)methyl] alpha-hydroxy alpha-methyl 4-(methylthio) 1H-imidazole 5-acetic acid] | 6.3 | 1.9 |  |  |
| CCCc1nc(SC)c(C(O)C(=O)O)n1Cc1ccc(-c2ccccc2S(=O)(=O)NC(=O)NCc2ccccc2)cc1 (stereo not drawn) [Example 21] | 2.5 | 6.5 |  |  |
| CCCc1nc(SC)c(C(O)(C(=O)O)c2ccccc2)n1Cc1ccc(-c2ccccc2S(=O)(=O)NC(=O)NCc2ccccc2)cc1 (stereo not drawn) [Example 34, alpha-hydroxy 4-(methylthio) alpha-phenyl 1-((2'-(((((phenylmethyl)amino)carbonyl)amino)sulphonyl) (1,1'-biphenyl) 4-yl)methyl) 2-propyl 1H-imidazole 5-acetic acid] | 0.7 | 2.1 |  |  |
| CCc1nc(SC)c(C(=O)O)n1Cc1ccc(-c2ccccc2S(=O)(=O)NC(=O)NCc2ccccc2)cc1 [Example 44, 2-ethyl 4-(methylthio) 1-((2'-(((((phenylmethyl)amino)carbonyl)amino)sulphonyl) (1,1'-biphenyl) 4-yl)methyl) 1H-imidazole 5-carboxylic acid] | 0.06 |  |  |  |
| CCCc1nc(SC(F)F)c(C(=O)O)n1Cc1ccc(-c2ccccc2S(=O)(=O)NC(=O)CCC2CCCC2)cc1 [Example 54] |  | 2.1 |  |  |
| CCCc1nc(SC(F)F)c(C(=O)O)n1Cc1ccc(-c2ccccc2S(=O)(=O)NC(=O)NCCC2=CCCCC2)cc1 [Example 56, 1-((2'-(((((2-cyclohexen-1-yl-ethyl)amino)carbonyl)amino)sulphonyl) (1,1'-biphenyl) 4-yl)methyl) 4-((difluoromethyl)thio) 2-propyl 1H-imidazole 5-carboxylic acid] |  | 5.8 |  |  |
| CCCCc1nc(Cl)c(C(=O)O)n1Cc1ccc(-c2ccccc2S(=O)(=O)NC(=O)NCc2ccccc2)cc1 [Example 59] | 0.08 |  |  |  |
| CCCc1nc(SC)c(C(=O)O)n1Cc1ccc(-c2ccccc2S(=O)(=O)NC(=O)Nc2ccc(C)cc2)cc1 [Example 63, 1-((2'-(((((4-methylphenyl)amino)carbonyl)amino)sulphonyl) (1,1'-biphenyl) 4-yl)methyl) 4-(methylthio) 2-propyl 1H-imidazole 5-carboxylic acid] |  | 3.5 |  |  |
| CCc1nc(SC)c(C(=O)O)n1Cc1ccc(-c2ccccc2S(=O)(=O)NC(=O)NCC2CCCCC2)cc1 [Example 69, potassium 1-((2'-(((((cyclohexylmethyl)amino)carbonyl)amino)sulphonyl) (1,1'-biphenyl 4-yl)methyl) 2-ethyl 4-(methylthio) 1H-imidazole 5-carboxylate (potassium salt)] |  | 1.3 |  |  |
| CCCCc1nc(SC)c(C(=O)O)n1Cc1ccc(-c2ccccc2S(=O)(=O)NC(=O)NCc2ccccc2)cc1 [Example P2, 2-butyl 4-(methylthio) 1-[(2'-(((((phenylmethyl)amino)carbonyl)amino)sulphonyl) (1,1'-biphenyl) 4-yl)methyl] 1H-imidazole 5-carboxylic acid] |  |  | 0.1 | 14 |
| CCCCc1nc(SC)c(C(=O)O)n1Cc1ccc(-c2ccccc2S(=O)(=O)NC(=O)NCC(C)c2ccccc2)cc1 (stereo not drawn) [Example P3, 2-butyl 4-(methylthio) 1-[(2'-(((((1-beta-phenylpropyl)amino)carbonyl)amino)sulphonyl) (1,1'-biphenyl) 4-yl)methyl] 1H-imidazole 5-carboxylic acid] |  |  | 1.1 | 11 |
| CCCCc1nc(SC)c(C(=O)O)n1Cc1ccc(-c2ccccc2S(=O)(=O)NC(=O)NCCCCc2ccccc2)cc1 [Example P4, 2-butyl 4-(methylthio) 1-[(^2 '-(((((1-(4-phenylbutyl))amino)carbonyl)amino)sulphonyl) (1,1'-biphenyl) 4-yl)methyl] 1H-imidazole 5-carboxylic acid] |  |  | 0.5 | 47 |
| CCCCc1nc(SC)c(C(=O)O)n1Cc1ccc(-c2ccccc2S(=O)(=O)NC(=O)NCc2ccc(OC)cc2)cc1 [Example P5, 2-butyl 1-[(2'-((((((4-methoxy)phenylmethyl)amino)carbonyl)amino)sulphonyl) (1,1'-biphenyl) 4-yl)methyl] 4-methylthio 1H-imidazole 5-carboxylic acid] |  |  | 0.3 | 25 |
| CCCCc1nc(SC)c(C(=O)O)n1Cc1ccc(-c2ccccc2S(=O)(=O)NC(=O)NCc2ccc(F)cc2)cc1 [Example P6, 2-butyl 1-[(2'-((((((4-fluoro)phenylmethyl)amino)carbonyl)amino)sulphonyl) (1,1,1-biphenyl) 4-yl)methyl] 4-methylthio 1H-imidazole 5-carboxylic acid] |  |  | 0.27 | 10 |
| CCCCc1nc(SC)c(C(=O)O)n1Cc1ccc(-c2ccccc2S(=O)(=O)NC(=O)NC(Cc2ccccc2)C(=O)O)cc1 (stereo not drawn) [Example P7, 2-butyl 1-[(2'-(((((1-(1-carboxy 2-phenyl)ethyl)amino)carbonyl)amino)sulphonyl) (1,1'-biphenyl) 4-yl)methyl] 4-methylthio 1H-imidazole 5-carboxylic acid] |  |  | 0.4 | 49 |
| CCCCc1nc(SC)c(C(=O)O)n1Cc1ccc(-c2ccccc2S(=O)(=O)NC(=O)OCc2cccs2)cc1 [Example P8, 2-butyl 4-(methylthio) 1-[(2'-((((2-thienyl)methoxycarbonyl)amino)sulphonyl) (1,1'-biphenyl) 4-yl)methyl] 1H-imidazole 5-carboxylic acid] |  |  | 0.14 | 17 |
| CCCCc1nc(SC)c(C(=O)O)n1Cc1ccc(-c2ccccc2S(=O)(=O)NC(=O)OCc2ccsc2)cc1 [Example P9, 2-butyl 4-(methylthio) 1-[(2'-((((3-thienyl)methoxycarbonyl)amino)sulphonyl) (1,1'-biphenyl) 4-yl)methyl] 1H-imidazole 5-carboxylic acid] |  |  | 0.19 | 53 |
| CCCCc1nc(SC)c(C(=O)O)n1Cc1ccc(-c2ccccc2S(=O)(=O)NC(=O)OCC2CC=CCC2)cc1 (stereo not drawn) [Example P10, 2-butyl 1-[(2'-((((cyclohexen 4-yl)methoxycarbonyl)amino)sulphonyl) (1,1'-biphenyl) 4-yl)methyl] 4-methylthio 1H-imidazole 5-carboxylic acid] |  |  | 0.7 | 31 |
| CCCCc1nc(SC)c(C(=O)O)n1Cc1ccc(-c2ccccc2S(=O)(=O)NC(=O)OCC2CCCCC2)cc1 [Example P11, 2-butyl 1-[(2'-((((cyclohexyl)methoxycarbonyl)amino)sulphonyl) (1,1'-biphenyl) 4-yl)methyl] 4-methylthio 1H-imidazole 5-carboxylic acid] |  |  | 0.14 | 24 |
